Measured values taken from patent US11332473B2, “Substituted pyrazolo[3,4-d]pyrimidines as Wee1 inhibitors” (NUVATION BIO INC., priority 2019, dated 2022).

Legend:
[1] = system: A427 cells; assay: Cytotoxicity assay in A427 cell line (resazurin); format: cell-based; conditions: Homo sapiens, A-427; A427 lung epithelial cell line, 72 hr, inhibition of proliferation
Protocol: A427 (HTB-53; ATCC), a lung epithelial cell line, was seeded in medium (MEM, 41090101; Gibco) at a cell count of 1500 cells per 100 μL per well in a 96 well edge plate (167425; ThermoFisher). Cells were allowed to grow at 37° C. for 24 hr in 5% CO2 environment (culture conditions) in a Nuaire incubator (humidified). Serially diluted test compounds (100 μL) within the desired testing concentration ranges were added to the culture plate and the cells were further incubated in culture conditions for 72 hr. The experiment was terminated at the designated incubation time by replacing the medium with 100 μL of 1 mM of resazurin (R7017; Sigma) prepared in culture medium, and the plates were further incubated in culture conditions for 4-6 hr. Fluorescence was recorded using a multimodal plate reader (Biotek Synergy Neo) at an excitation wavelength of 535 nm and emission wavelength of 590 nm to obtain relative fluorescence units. Data were analysed as follows: the background fluorescence (blank containing only medium) value was subtracted from each reading and normalized with the vehicle control (DMSO treated cells) to obtain percent survival/proliferation. Percent survival was subtracted from 100 to get the percent inhibition of proliferation which was used to calculate IC50 values. Potency of compounds in other cell lines (such as A549, AsPc-1, Panc 10.05, A172, U-87MG) may be determined in an analogous manner.

[2] = system: phospho-CDC2 in A427 cells; assay: Phospho-CDC2 (Tyr15) sandwich ELISA in A427 cells; format: cell-based; conditions: Homo sapiens, A-427
Protocol: (§1) Changes in the levels of phospho-CDC2 following treatment of cells with test compounds were assessed by enzyme-linked immunosorbent assay (ELISA). A427 cells or AsPC-1 cells were plated in 6-well plates and cultured for 24 hr to approximately 80-90% confluency. Medium was replaced, and the cells were treated with the vehicle control or the test compound at several different concentrations. After incubation of treated cells in cell culture conditions for a specified time (e.g., 24 hr), cells were rinsed with ice-cold PBS and lysed in 1× cell lysis buffer containing protease inhibitors and phosphatase inhibitors. The cells were scraped from the plate with a cell scraper after a brief incubation on ice and transferred to a centrifuge tube, and then subjected to three freeze-thaw cycles in liquid nitrogen and a 37° C. water bath for further lysis. The lysates were centrifuged to pellet cell debris (using, for example, a 10 min centrifugation of 2000× g at 4° C.) and the supernatants transferred to fresh tubes on ice. The protein concentrations of the samples were estimated by the Bradford method or equivalent. The ELISA was carried out with the PathScan® Phospho-CDC2 (Tyr15) Sandwich ELISA Kit (Cat. #7176, Cell Signaling Technology, Danvers, Mass.) according to the manufacturer's instructions.

[3] = biological target: PKMYT1 kinase (Homo sapiens (Human), UniProt Q99640); assay: PKMYT1 IC50 determination, HotSpot Kinase Assay; format: biochemical; conditions: 10 μM ATP, 33P-ATP, Myelin Basic Protein substrate
Protocol: Inhibition of PKMYT1 kinase activity by test compounds was measured by the HotSpot Kinase Assay at Reaction Biology Corporation (Malvern, Pa.). Briefly, Myelin Basic Protein substrate was prepared in Reaction Buffer (20 mM Hepes (pH 7.5), 10 mM MgCl2, 1 mM EGTA, 0.01% Brij35, 0.02 mg/mL BSA, 0.1 mM Na3VO4, 2 mM DTT, 1% DMSO). PKMYT1 kinase was delivered into the substrate solution and gently mixed. Test compounds in 100% DMSO were added into the kinase reaction mixture by Acoustic technology (Echo550; nanoliter range) and incubated for 20 min at room temperature. ^33P-ATP was delivered into the reaction mixture to initiate the reaction. Reactions were carried out at 10 μM ATP. After a 2 hour incubation at room temperature, kinase activity was detected by P81 filter-binding method. […] A nonlinear regression model with a sigmoidal dose response and variable slope within GraphPad Prism (GraphPad Software, San Diego, Calif.) was used to calculate the IC50 value of individual test compounds.

[4] = system: phospho-CDC2 in AsPC-1 cells; assay: Phospho-CDC2 (Tyr15) sandwich ELISA in AsPC-1 cells; format: cell-based; conditions: Homo sapiens, ASPC1
Protocol: as §1

[5] = biological target: WEE1 kinase enzyme (Homo sapiens (Human), UniProt P30291); assay: WEE1 IC50 determination, LanthaScreen Terbium Labeled TR-FRET kinase assay; format: biochemical; conditions: WEE1 enzyme 1 nM, ATP 10 μM
Protocol: IC50 values of compounds against WEE1 kinase enzyme were determined by LanthaScreen™ Terbium Labeled TR-FRET assay. Kinase assays were performed in 1X kinase buffer (#PV6135, Invitrogen, Life Technologies Grand Island, N.Y.) where total reaction volume was 10 μL in low-volume 384-well plates (#4511, Corning). Serially diluted compounds (3-fold) were incubated with WEE1 Enzyme (1 nM) (#PR7373A, Invitrogen, Life Technologies, Grand Island, N.Y.) for 10 min; a mixture of ATP (10 μM) (#A1852, Sigma, St. Louis, Mo.) and fluorescent-PolyGT substrate (200 nM) (#PV3610, Invitrogen, Life Technologies Grand Island, N.Y.) was added and incubated in dark at room temperature for 1 h. After 1 h, 10 μL stop solution containing Terbium labeled antibody (4 nM) (#PV3529, Invitrogen, Life Technologies Grand Island, N.Y.) and EDTA (#E5134, Sigma, St. Louis, Mo.) (20 mM) in TR-FRET dilution buffer (#PV3574, Invitrogen, Life Technologies Grand Island, N.Y.) was added. Readings were taken in a Synergy Neo Plate reader (BioTek, Winooski, Vt.) at single excitation of 340 nm and dual emission at 495 nm and 520 nm respectively.
The % activity of test samples was calculated as (Sample−Min)*100/(Max−Min). [Max: DMSO control, complete reaction with enzyme & DMSO and Min: No enzyme & DMSO].

Chain of PKMYT1 kinase (Q99640 whole entry): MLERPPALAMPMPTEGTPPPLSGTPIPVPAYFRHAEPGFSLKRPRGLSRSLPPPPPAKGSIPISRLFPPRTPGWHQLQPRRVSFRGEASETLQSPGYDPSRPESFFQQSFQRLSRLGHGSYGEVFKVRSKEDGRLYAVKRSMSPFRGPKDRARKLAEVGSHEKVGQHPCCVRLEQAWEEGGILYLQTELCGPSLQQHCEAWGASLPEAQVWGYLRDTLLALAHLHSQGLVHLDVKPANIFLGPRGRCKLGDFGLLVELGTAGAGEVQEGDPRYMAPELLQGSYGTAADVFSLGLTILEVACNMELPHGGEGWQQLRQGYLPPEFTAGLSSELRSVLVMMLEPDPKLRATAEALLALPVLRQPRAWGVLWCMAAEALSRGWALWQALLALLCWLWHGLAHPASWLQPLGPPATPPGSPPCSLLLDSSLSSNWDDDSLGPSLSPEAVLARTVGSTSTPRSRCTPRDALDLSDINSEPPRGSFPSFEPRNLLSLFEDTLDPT
Chain of WEE1 kinase enzyme (P30291 whole entry): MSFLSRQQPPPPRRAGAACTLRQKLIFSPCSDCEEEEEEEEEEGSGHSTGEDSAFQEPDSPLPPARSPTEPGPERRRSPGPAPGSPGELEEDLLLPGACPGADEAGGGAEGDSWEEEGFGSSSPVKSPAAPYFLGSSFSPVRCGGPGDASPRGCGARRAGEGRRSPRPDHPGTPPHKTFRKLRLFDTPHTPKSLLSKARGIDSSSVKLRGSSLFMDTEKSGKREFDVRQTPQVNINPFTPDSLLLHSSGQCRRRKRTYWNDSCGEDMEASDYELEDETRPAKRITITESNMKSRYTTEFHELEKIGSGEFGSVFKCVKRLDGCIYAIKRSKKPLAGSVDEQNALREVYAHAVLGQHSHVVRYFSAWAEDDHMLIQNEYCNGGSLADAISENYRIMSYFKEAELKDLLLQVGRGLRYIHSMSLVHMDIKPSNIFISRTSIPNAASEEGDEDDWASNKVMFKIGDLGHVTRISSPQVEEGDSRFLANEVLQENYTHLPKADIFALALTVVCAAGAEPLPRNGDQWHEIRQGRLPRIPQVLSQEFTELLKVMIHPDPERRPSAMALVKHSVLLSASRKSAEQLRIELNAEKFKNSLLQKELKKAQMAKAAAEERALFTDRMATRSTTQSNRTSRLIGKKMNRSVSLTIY

Compound | IC50 [2] | IC50 [3] | IC50 [4] | IC50 [5] | IC50 [1]
CC(C)n1c(=O)c2cnc(Nc3ccc4c(c3)CCNC4(C)C)nc2n1-c1cccc(C2(C#N)CC2)n1 [1.45, 1-(6-(6-(1,1-dimethyl-1,2,3,4-tetrahydroisoquinolin-6-ylamino)-2-isopropyl-3-oxo-2,3-dihydro-1H-pyrazolo[3,4-d]pyrimidin-1-yl)pyridin-2-yl)cyclopropanecarbonitrile] | 66 nM | 1540 nM | 285 nM | 10 nM | 2180 nM
CC(C)n1c(=O)c2cnc(Nc3ccc4c(c3)CCNC4)nc2n1-c1ccc(F)c(C(C)(C)F)n1 [1.1, 1-(5-fluoro-6-(2-fluoropropan-2-yl)pyridin-2-yl)-2-isopropyl-6-((1,2,3,4-tetrahydroisoquinolin-6-yl)amino)-1,2-dihydro-3H-pyrazolo[3,4-d]pyrimidin-3-one] | 339 nM | 6570 nM | – | 6 nM | 3740 nM
CC(C)(F)c1nc(-n2c3nc(Nc4ccc5c(c4)CCNC5)ncc3c(=O)n2C2CC2)ccc1F [1.2, 2-cyclopropyl-1-(5-fluoro-6-(2-fluoropropan-2-yl)pyridin-2-yl)-6-((1,2,3,4-tetrahydroisoquinolin-6-yl)amino)-1,2-dihydro-3H-pyrazolo[3,4-d]pyrimidin-3-one] | 952 nM | 10200 nM | – | 36 nM | 3410 nM
CCn1c(=O)c2cnc(Nc3ccc4c(c3)CNCC4)nc2n1-c1cccc(C2(C#N)CC2)n1 [1.38, 1-(6-(2-ethyl-3-oxo-6-((1,2,3,4-tetrahydroisoquinolin-7-yl)amino)-2,3-dihydro-1H-pyrazolo[3,4-d]pyrimidin-1-yl)pyridin-2-yl)cyclopropane-1-carbonitrile] | 176 nM | 223 nM | – | 4 nM | 401 nM
CC(C)n1c(=O)c2cnc(Nc3ccc4c(c3)CCNC4)nc2n1-c1cccc(C2(C#N)CC2)n1 [1.43, 1-(6-(2-isopropyl-3-oxo-6-((1,2,3,4-tetrahydroisoquinolin-6-yl)amino)-2,3-dihydro-1H-pyrazolo[3,4-d]pyrimidin-1-yl)pyridin-2-yl)cyclopropane-1-carbonitrile] | 320 nM | 5630 nM | – | 9 nM | 1480 nM
CCn1c(=O)c2cnc(Nc3ccc4c(c3)CCNC4)nc2n1-c1cccc(C2(C#N)CC2)n1 [1.37, 1-(6-(2-ethyl-3-oxo-6-((1,2,3,4-tetrahydroisoquinolin-6-yl)amino)-2,3-dihydro-1H-pyrazolo[3,4-d]pyrimidin-1-yl)pyridin-2-yl)cyclopropane-1-carbonitrile] | – | 691 nM | – | 13 nM | 660 nM

Continued, in another order:

IC50 [2] | IC50 [3] | IC50 [4] | IC50 [5] | Compound | IC50 [1]
230 nM | 20100 nM | – | 16 nM | CC(C)n1c(=O)c2cnc(Nc3ccc4c(c3)CCNC4)nc2n1-c1ccc(F)c(C(C)(C)O)n1 [1.249, 1-(5-fluoro-6-(2-hydroxypropan-2-yl)pyridin-2-yl)-2-isopropyl-6-((1,2,3,4-tetrahydroisoquinolin-6-yl)amino)-1,2-dihydro-3H-pyrazolo[3,4-d]pyrimidin-3-one] | 592 nM
– | 2900 nM | – | 15 nM | CC(C)n1c(=O)c2cnc(Nc3ccc4c(c3)CCNC4)nc2n1-c1ccnc(C2(C#N)CC2)c1 [1.67, 1-(4-(2-isopropyl-3-oxo-6-(1,2,3,4-tetrahydroisoquinolin-6-ylamino)-2,3-dihydro-1H-pyrazolo[3,4-d]pyrimidin-1-yl)pyridin-2-yl)cyclopropanecarbonitrile] | 2580 nM
– | 4540 nM | – | 9 nM | CCn1c(=O)c2cnc(Nc3ccc4c(c3)CCNC4)nc2n1-c1ccc(F)c(C(C)(C)O)n1 [1.261, 2-ethyl-1-(5-fluoro-6-(2-hydroxypropan-2-yl)pyridin-2-yl)-6-((1,2,3,4-tetrahydroisoquinolin-6-yl)amino)-1,2-dihydro-3H-pyrazolo[3,4-d]pyrimidin-3-one] | 900 nM
– | 19900 nM | – | 384 nM | CC(C)n1c(=O)c2cnc(Nc3ccc4c(c3)CNCC4)nc2n1-c1nc(C(C)(C)C)c(Cl)s1 [1.349, 1-(4-(tert-butyl)-5-chlorothiazol-2-yl)-2-isopropyl-6-((1,2,3,4-tetrahydroisoquinolin-7-yl)amino)-1,2-dihydro-3H-pyrazolo[3,4-d]pyrimidin-3-one] | 490 nM
